Assay results: patent US6930131B2, “Aryl substituted 3-ethoxy phenyl trifluoromethane sulfonamides for the treatment of non-insulin dependent diabetes mellitus (NIDDM)” (Wyeth, priority 2002, dated 2005)
pIC50: −log10 of the molar value.

Key:
[1] = tested on: ob/ob (C57 B1/6J) mice; test: Hypoglycemic effect in diabetic ob/ob mice; assay type: in vivo, mouse
Method: Hypoglycemic Effect in Diabetic OB/OB Mice
Procedure: In each study, male or female ob/ob (C57 B1/6J) mice and their mean litermates (ob/+ or +/+, Jackson Laboratories) ages 2 to 5 months (10 to 65 g) were randomized according to plasma glucose into 4 groups of 10 mice. The mice were housed 5 per cage and were maintained on normal rodent chow with water ad libitum. Mice receive compound daily by gavage (suspended in 0.5 ml of 0.5% methyl cellulose); dissolved in the drinking water; or admixed in the diet. The dose of compounds given ranges from 2.5 to 200 mg/kg body weight/day. Body weight of fed animals was measured at the beginning of each week and doses for the entire week were calculated using this weight and were expressed in terms of the active moiety of the compound. Control mice receive vehicle only. […]
Measurements: The plasma was isolated by centrifugation and the concentration of glucose was measured enzymatically on an Abbott V. P. Analyzer and the plasma concentration of insulin was determined by radioimmunoassay (Heding, 1972)
Analysis of variance followed by Dunnett's Comparison Test (one-tailed) was used to estimate the significant difference between the plasma glucose values from the control group and the individual compound treated groups (CMS SAS Release 5.18). A compound will be considered active if the difference has a p<0.05.

[2] = tested on: Hepatocytes Isolated and Cultured from Obese Zucker (fa/fa) Rats; test: Inhibition of glucose output from hepatocytes isolated and cultured from obese Zucker (fa/fa) rats; assay type: cell-based, rat; conditions: inhibition of glucose output vs glucagon stimulated cultured hepatocytes
Method: Inhibition of Glucose Output from Hepatocytes Isolated and Cultured from Obese Zucker (fa/fa) Rats and their Lean Controls
Culturing of Hepatocytes: Isolated hepatocytes were plated on 12 well rat-tail collagen coated plates at a cell density of 5×10(5) cells/ml (approximately 1 ml of cell suspension per well). Following a one hour attachment period in which plates were incubated in a CO2 incubator at 37 deg C. (95% O2, 5% CO2), the supernatant containing unattached hepatocytes was removed and replaced with fresh media (1 ml/well) containing 1 μM dexamethasone and 100 pM insulin. Cells were maintained at 37 deg C. for 48 hours in a 95% O2, 5% CO2 environment. At the end of the first 24 hours, the media was aspirated off of the wells and replaced with fresh media containing the same concentrations of dexamethasone and insulin as described earlier. Treatment with Drugs and Assessment of Glucose Output: Drugs were routinely added with fresh media 24 hours after the initial attachment period. Eighteen hours later, media was aspirated and 500 μl of fresh Hank's buffer, Buffer D (glucose-free) supplemented with hormones, gluconeogenic substrates and drug(s) was added to each well and incubated for 4 hours. At the end of the 4 hour incubation, media from each well was removed and assayed for glucose content using the hexokinase/glucose-6-phosphate dehydrogenase coupled assay on the Boehringer Mannheim model 911 auto analyzer. Glucose concentration was expressed as μg/ml. Three of the plates from each treated group were frozen for subsequent determination of protein content. Two plates from each treatment group were used to assess the cytotoxicity of drug(s) and other agents as determined by the MTT (tetrazolium) dye reduction method (see below).
Assessment of Cytotoxicity using MTT Dye Reduction Assay: Two plates with no insulin treatment and two plates with 10^−8 M insulin treatment were used for the MTT dye reduction assay. Following removal of media from the plates for measurement of glucose output, wells were washed once with 1 ml of Hank's buffer (0.5% BSA). Aliquots of […] of Hank's buffer (1.1% BSA) and […] MTT solution (5 mg MTT/ml in phosphate buffered saline (PBS) filtered through 0.45 micron syringe filter) were added to each well. Plates were incubated for one hour at 37 deg C. After one hour incubation, the MTT dye solution was aspirated off and […] of HCL/isopropanol solution (8 ml of 1 N HCL and 192 ml of isopropanol) was added to each well. HCL/isopropanol solution was mixed by drawing liquid into a pipetman 2 to 3 times and then carefully transferred into a 96 well flat bottom plate. The 96 well plate was read on a plate reader (UV max kinetic microplate reader, Molecular Devices) at 570 nm test wavelength and 650 nm reference wavelength. The results were expressed as % inhibition from the control (lactate and glucagon treated) well.
Protein test procedure: Three plates with no insulin treatment and three plates with 10^−8 M insulin treatment were used for protein determination. After supernatant has been removed for determination of glucose output the plates were frozen and stored at −20 deg C. until ready to assay for protein content. Prior to determination of protein the plates were defrosted at room temperature for 15 minutes. An aliquot of 1 ml 0.1 N NaOH was added to each well. Plates were incubated at 4 deg C. overnight. Solutions for measurement of protein content were mixed by pipetting the NaOH solution up and down several time with a 1 ml pipette and then transferring to a small polyethylene tube. Protein determination was based on that of the Pierce BCA protein assay protocol (Pierce cat. no. 23223). A set of protein standards (0.2, 0.4, 0.6, 0.8, and 1 mg/ml BSA) was prepared by serial dilution of 1 mg/ml bovine serum albumin with 0.1 N NaOH, and 40 μl of each standard, or control blank was pipetted into a 96-well plate in duplicate. Each unknown protein sample (40 μl) was tested in triplicate. […]

[3] = tested on: ob/ob (C57 B1/6J) mice; conditions: reference compound, 20 mg/kg/day; cited from earlier work

| melting point [°C] | Compound | Reduction in Plasma Glucose Day 1 (6 hr) p.o. ([1]; 5 mg/kg p.o.) [%] | Reduction in Plasma Glucose Day 3 (6 hr) p.o. ([1]; 5 mg/kg p.o.) [%] | pIC50 ([2]; Rattus norvegicus, Hepatocyte) | pIC50 [2] | further results |
| --- | --- | --- | --- | --- | --- | --- |
| 89 to 90 | CC(C)(C)c1ccc(-c2ccc(COCCc3cccc(NS(=O)(=O)C(F)(F)F)c3)c(F)c2)cc1 [Example 19, N-{3-[2-(4′-tert-Butyl-3-fluoro-biphenyl-4-ylmethoxy)-ethyl]-phenyl}-C,C,C-trifluoro-methanesulfonamide] |  |  | 5.10 |  |  |
| 70 to 71 | COc1ccc(-c2cc(COCCc3cccc(NS(=O)(=O)C(F)(F)F)c3)ccc2F)cc1 [Example 42, C,C,C-Trifluoro-N-{3-[2-(6-fluoro-4′-methoxy-biphenyl-3-yl-methoxy)-ethyl]-phenyl}-methanesulfonamide] |  |  |  |  | Reduction in Plasma Glucose Day 1 (6 hr) p.o. ([1]; 10 mg/kg p.o.): −14%; Reduction in Plasma Glucose Day 3 (6 hr) p.o. ([1]; 10 mg/kg p.o.): −14% |
| 110 to 112 | CC(C)(C)c1ccc(-c2nc(COCCc3cccc(NS(=O)(=O)C(F)(F)F)c3)cs2)cc1 [Example 43, N-(3-{2-[2-(4-tert-Butyl-phenyl)-thiazol-4-ylmethoxy]-ethyl}-phenyl)-C,C,C-trifluoro-methanesulfonamide] |  |  | 5.16 |  |  |
| 114 to 116 | O=S(=O)(Nc1cccc(CCOCc2csc(-c3ccc(Cl)cc3)n2)c1)C(F)(F)F [Example 53, N-(3-{2-[2-(4-Chloro-phenyl)-thiazol-4-ylmethoxy]-ethyl}-phenyl)-C,C,C-trifluoro-methanesulfonamide] |  |  | 5.00 |  | Reduction in Plasma Glucose Day 1 (6 hr) p.o. ([1]; 10 mg/kg p.o.): −36%; Reduction in Plasma Glucose Day 3 (6 hr) p.o. ([1]; 10 mg/kg p.o.): −26% |
| 88 to 90 | COc1cc(COCCc2cccc(NS(=O)(=O)C(F)(F)F)c2)ccc1-c1ccc(Cl)cc1 [Example 88, N-{3-[2-(4′-Chloro-2-methoxy-biphenyl-4-ylmethoxy)-ethyl]-phenyl}-C,C,C-trifluoromethane sulfonamide] |  |  | 5.40 |  | Reduction in Plasma Glucose Day 1 (6 hr) p.o. ([1]; 25 mg/kg p.o.): −71; Reduction in Plasma Glucose Day 3 (6 hr) p.o. ([1]; 25 mg/kg p.o.): −29 |

The next lines start with the compound.

| Compound | melting point [°C] | Reduction in Plasma Glucose Day 1 (6 hr) p.o. ([1]; 5 mg/kg p.o.) [%] | Reduction in Plasma Glucose Day 3 (6 hr) p.o. ([1]; 5 mg/kg p.o.) [%] | pIC50 ([2]; Rattus norvegicus, Hepatocyte) | pIC50 [2] | further results |
| --- | --- | --- | --- | --- | --- | --- |
| O=S(=O)(Nc1cccc(CCOCc2ccc(-c3ccc(C(F)(F)F)cc3)cc2)c1)C(F)(F)F [Example 2, C,C,C-trifluoro-N-{3-[2-(4′-trifluoromethyl-biphenyl-4-ylmethoxy)-ethyl]-phenyl}-methanesulfonamide] | 98 to 100 | −8 | −34 |  |  |  |
| O=S(=O)(Nc1cccc(CCOCc2ccc(-c3ccc(Cl)c(Cl)c3)cc2)c1)C(F)(F)F [Example 6, N-{3-[2-(3′,4′-Dichloro-biphenyl-4-ylmethoxy)-ethyl]-phenyl}-C,C,C-trifluoro-methanesulfonamide] | 74 to 75 | −16 | −24 | 5.64 |  |  |
| O=S(=O)(Nc1cccc(CCOCc2ccc(-c3ccc(Cl)cc3)cc2)c1)C(F)(F)F [Example 7, N-{3-[2-(4′-Chloro-biphenyl-4-ylmethoxy)-ethyl]-phenyl}-C,C,C-trifluoromethane sulfonamide] | 69 to 70 | −8 | −22 | 5.60 |  |  |
| O=S(=O)(Nc1cccc(CCOCc2ccc(-c3ccc(Cl)cc3)cc2F)c1)C(F)(F)F [Example 11, N-{3-[2-(4′-Chloro-3-fluoro-biphenyl-4-ylmethoxy)-ethyl]-phenyl}-C,C,C-trifluoro methane sulfonamide] |  |  |  |  | 5.00 |  |
| O=S(=O)(Nc1cccc(CCOCc2ccc(-c3ccc(F)cc3)cc2Cl)c1)C(F)(F)F [Example 22] |  |  |  |  | 5.66 |  |
| O=S(=O)(Nc1cccc(CCOCc2ccc(-c3ccc(Cl)cc3)cc2Cl)c1)C(F)(F)F [Example 23, N-{3-[2-(3-Chloro-4′-chloro-biphenyl-4-ylmethoxy)-ethyl]-phenyl}-C,C,C-trifluoro methane sulfonamide] |  | −37 | −37 |  | 5.77 |  |
| COc1cc(-c2ccc(Cl)cc2)ccc1COCCc1cccc(NS(=O)(=O)C(F)(F)F)c1 [Example 26, N-{3-[2-(4′-Chloro-3-methoxy-biphenyl-4-ylmethoxy)-ethyl]-phenyl}-C,C,C-trifluoro methane sulfonamide] |  |  |  |  | 5.64 | Reduction in Plasma Glucose Day 1 (6 hr) p.o. ([1]; 20 mg/kg p.o.): −20%; Reduction in Plasma Glucose Day 3 (6 hr) p.o. ([1]; 20 mg/kg p.o.): +1 |
| O=S(=O)(Nc1cccc(CCOCc2csc(-c3ccc(F)c(Cl)c3)n2)c1)C(F)(F)F [Example 56, N-(3-{2-[2-(3-Chloro-4-fluoro-phenyl)-thiazol-4-ylmethoxy]-ethyl}-phenyl)-C,C,C-trifluoro-methanesulfonamide] |  | −16 | −26 | 4.82 |  |  |
| O=C(O)c1ncccc1S [Na-Mercaptopicolinic acid, reference compound] |  |  |  |  | 4.35 |  |
| sodium metavanadate |  |  |  |  |  | lowering in plasma glucose [3]: significant lowering in plasma glucose |
